The values below come from patent US12264349B2, “Method for producing monoterpenoid compounds” (John Innes Centre, priority 2018, dated 2025).

In series [1] the target is T1, NEPS1-WT (Nepeta racemosa, UniProt A0A3Q8GL18).
T1 construct: made in house; host or cells: E. coli SoluBL21
T1 sequence (A0A3Q8GL18 1-271): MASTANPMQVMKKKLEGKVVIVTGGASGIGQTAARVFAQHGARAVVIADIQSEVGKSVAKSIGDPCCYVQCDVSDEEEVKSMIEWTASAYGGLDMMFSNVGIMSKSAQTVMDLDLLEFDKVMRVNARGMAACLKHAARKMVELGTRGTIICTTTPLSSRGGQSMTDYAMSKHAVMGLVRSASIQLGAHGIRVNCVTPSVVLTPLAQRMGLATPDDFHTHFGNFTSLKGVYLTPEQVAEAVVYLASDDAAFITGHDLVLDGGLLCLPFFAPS
Briefly: NEPS1 dehydrogenase activity kinetics, spectrophotometric at 340 nm. The series is classed as biochemical, Nepeta mussinii. As to conditions: for Kcat or V (velocity V, single substrate concentration): substrate 1000 μM. Here is the method:
(§1) Kinetics and dehydrogenase activity measurements were conducted spectrophotometrically on a PerkinElmer Lambda 35 instrument at a wavelength of 340 nm and in cuvettes with 1 cm path length. The reactions were conducted at 25° C. and with 50 mM HEPES pH 8.0, […].
(§2) Reactions were initiated by addition of the enzyme, and absorbance values were recorded at a rate of 1 Hz. Enzyme concentration was varied from 0.025-0.25 μM to maintain a linear rate. The R software environment was used to fit linear initial rates over the first 20 s of the enzyme reaction. For Michaelis-Menten experiments, at least 8 data points were obtained for each substrate combination. The Michaelis-Menten equation was fitted to the data points in R by the nls function to obtain values for the kinetic parameters. Kinetic parameters are reported as a best fit estimate±SE. For activity measurements with NADP^+ and NADH, single substrate concentrations were employed. Velocity values (in italics) are provided as a mean of triplicate measurements±standard deviation from the mean.

In series [2] the target is T2, NEPS1-T154G (Nepeta racemosa, UniProt A0A3Q8GL18, T154G).
T2 construct: This gene-length amplicon was gel-purified and then cloned into the pOPINF vector; made in house; host or cells: E. coli SoluBL21
The series is classed as biochemical, Nepeta mussinii. Here is the method:
as §1, §2

Series [3] is described as follows: Nepetalactol stability in buffer (GC-MS). The series is classed as physicochemical. As to conditions: 30° C. How it is done: Cis-trans-nepetalactol (4a, FIG. 10A) and cis-cis-nepetalactol (4b, FIG. 10B) stability in 10 mM and 0.5 M MOPS pH 7.5. 4a appears to be stable in both these conditions. 4b appears mostly stable in 10 mM MOPS pH 7.5, but is not stable in high buffer concentrations (0.5 M MOPS pH 7.5) and degrades to form iridodials 5. Chromatograms are all GC-MS TICs, RT=retention time (min), incubation was 16 h, 30° C.
End-point assays with purified enzymes were conducted at a total volume of 100 μL. Reactions using either 8-oxogeranial 2 or 8-oxocitronellal 6 as a substrate contained 1% v/v MeCN. In experiments examining the effect of buffer concentrations, enzymes were diluted with water. Trace residual concentrations of sample buffer in the enzyme sample were too low to effect product profiles. All reactions were conducted at 30° C. Reactions containing 8-oxogeranial 2 as a substrate were incubated for 3 h, whilst reactions with 8-oxocitronellal 6 were incubated for 16 h, unless noted. At reaction termination, a camphor standard (10 μL, stock 1 mM in MeCN) and EtOAc (100 μL) were added. The reactions were vortexed, centrifuged (10,000×g, 10 min) and the organic layer was used in GC-MS analysis. The concentrations of components in reactions varied extensively and so for each reaction the Figure or Figure legend describe the exact conditions employed.
Samples were injected in split mode (2 μL, split ratio 5:1) at an inlet temperature of 220° C. on a Hewlett Packard 6890 GC-MS equipped with a 5973 mass selective detector (MSD), and an Agilent 7683B series injector and autosampler. Separation was performed on a Zebron ZB5-HT-INFERNO column (5% phenyl methyl siloxane; length: 35 m; diameter: 250 μm) with guard column. Helium was used as mobile phase at a constant flow rate of 1.2 mL/min and average velocity 37 cm/s. After 5 min at 80° C., the column temperature was increased to 110° C. at a rate of 2.5 K/min, then to 280° C. at 120 K/min, and kept at 280° C. for another 4 min. A solvent delay of 5 min was allowed before collecting MS spectra at a fragmentation energy of 70 eV. An internal standard of (+)-camphor was used for retention time calibration. Chemically characterised standards were used to identify compounds by retention time and electron impact spectra.

The mark [4] stands for this setting: co-substrate NAD+ 1 mM, substrate 50-750 μM.
[5] abbreviates: co-substrate NAD+ 1 mM, 25° C., 50 mM HEPES pH 8.0.
The mark [6] stands for this setting: co-substrate 4a 0.5 mM, substrate 7.8-1000 μM.
Setting [7] is: co-substrate 4a 0.1 mM, substrate 1-250 μM.

Broadly, the Km is the substrate concentration at which the rate is half of its maximum.

Like-named read-outs stand apart in the source and are kept apart here.

As to `CC1=COC(=O)[C@H]2[C@@H]1CC[C@@H]2C` (relative stereo) [1a, cis-trans-nepetalactone], the “Kcat or V (velocity V, single substrate concentration)” value in series [1] (co-substrate NADH 0.1 mM) is “no reaction”.

Take `CC1=COC(O)[C@H]2[C@@H]1CC[C@@H]2C` (relative stereo) [4a, cis-trans-nepetalactol]: the “increase in Km caused by the T154G substitution” value in series [2] (NEPS1-T154G versus NEPS1-WT) was 150 fold. The “Kcat or V (kcat, substrate concentration varied)” value in series [2] (setting [4]) came to 0.0804 ± 0.005 s⁻¹; in series [1] (setting [5]) it was 0.148 ± 0.002 s⁻¹. In addition, the Km in series [2] (setting [4]) came out at 251 ± 37 µM; in series [1] (setting [5]), 1.6 ± 0.1 µM. Also, the stability in buffer entry in series [3] (10 mM MOPS pH 7.5, 16 h) is on record as “stable”; in series [3] (0.5 M MOPS pH 7.5, 16 h), “stable”.

On to `CC1=COC(O)[C@H]2[C@@H](C)CC[C@@H]12` (relative stereo) [4b, cis-cis-nepetalactol], for which the stability in buffer result in series [3] (10 mM MOPS pH 7.5, 16 h) is “mostly stable”. The stability in buffer result in series [3] (0.5 M MOPS pH 7.5, 16 h) is given as “not stable”. Besides, in series [1] (setting [5]), the “Kcat or V (kcat, substrate concentration varied)” value stood at 0.32 ± 0.01 s⁻¹ and the Km turned out to be 4.9 ± 0.8 µM.

With `NC(=O)c1ccc[n+]([C@@H]2O[C@H](COP(=O)([O-])OP(=O)(O)OC[C@H]3O[C@@H](n4cnc5c(N)ncnc54)[C@H](O)[C@@H]3O)[C@@H](O)[C@H]2O)c1` [NAD+, oxidized nicotinamide adenine dinucleotide, reference compound], in series [2] (setting [6]), the “Kcat or V (kcat, substrate concentration varied)” value is 0.0599 ± 0.002 s⁻¹ and the Km was 26 ± 4 µM. In series [1] (setting [7]), the “Kcat or V (kcat, substrate concentration varied)” value came out at 0.173 ± 0.003 s⁻¹ and the Km came out at 3.5 ± 0.3 µM.

In the case of `NC(=O)c1ccc[n+]([C@@H]2O[C@H](COP(=O)([O-])OP(=O)(O)OC[C@H]3O[C@@H](n4cnc5c(N)ncnc54)[C@H](OP(=O)(O)O)[C@@H]3O)[C@@H](O)[C@H]2O)c1` [NADP+, reference compound], the “Kcat or V (velocity V, single substrate concentration)” value in series [1] (co-substrate 4a 0.1 mM) is 0.020 ± 0.005 s⁻¹.
